# From patent US20220332758A1, “PEPTIDE-BASED COMPOSITIONS AND METHODS FOR TREATING ALZHEIMER'S DISEASE” (Board of Regents, The Universityof Texas System, priority 2019, published 2022)
# Columns and labels:
# [1] = target: T1, proteasome activity in CNS of non-transgenic mice (Mus musculus, UniProt P49722+Q9QUM9); assay: Proteasome activity in CNS of mice after IP injection; format: in vivo
# T1 construct: from tissue; host or cells: CNS of non-transgenic mice
# Protocol: Plate-based proteasome activity assay. Samples were homogenized by pestle in 100 μL chilled proteasome buffer (50 mM Tris, 5 mM MgCl2, 1 mM DTT, pH 7.4, vortexed and then centrifuged at 21,000 g at 4° C. for 15 minutes and supernatant transferred. Protein content was recorded by Bradford assay and samples diluted as appropriate. In a black 96-well plate, 10 μL of samples were added to 80 μL proteasome buffer supplemented with addition of 5 mM ATP for measuring 26S proteasome activity. Finally, 50 μM Suc-LLVY-AMC fluorogenic substrate in 10 μL proteasome buffer was added to each well to measure chymotrypsin-like activity. The plate was incubated at 37° C. in a SpectrumMax M2 plate reader for four hours with fluorescence measured every 10 minutes with 355 nm excitation and reading 460 nm emission. Total proteasome activity per sample was defined as the gradient of the linear trendline over this incubation period.
# 20S proteasome = 20S proteasome (Homo sapiens, UniProt P25787+P60900); assay: AFM imaging of gate conformers of 20S proteasomes; set-up: purified from erythrocytes; purchased Boston Biochem, Inc. or Enzo Life Sciences, Inc; host or cells: human erythrocytes; conditions: 1 μM
# Protocol: Atomic Force Microscopy (AFM) Imaging. Single molecules of 20S proteasomes were imaged in tapping (oscillating) mode in liquid, with a scanner E of the Multimode Nanoscope IIIa (Bruker Inc., Santa Barbara, Calif.). The proteasomes were electrostatically attached to a muscovite mica substrate, covered with imaging buffer (5 mM Tris/HCl, pH 7) and scanned using cantilevers with the spring constant of 0.35 N/m from the SNL (Sharp Nitride Lever) probes (Bruker Inc., Santa Barbara, Calif.) tuned to 9-10 kHz. The amplitude set-point in the range of 1.5-2.0V, drive voltage of 300-500 mV and 3.05 Hz scanning rate were used. Scans of 1 μm^2 fields (512×512 pixels) were collected in height-mode. The images of fields typically contained several dozens of top-view (“standing”) 20S proteasome particles. The gate status was deduced from a profile of raw height values of pixels measured by a probe scanning across the single proteasome particles. In short, under the employed scanning conditions the proteasome a face with the central gate area was completely rendered by a six-pixel (11-12 nm) scan-line fragment. Numerical values of the height of particles of raw (after standard flattening) images were collected with a practical vertical resolution reaching 1 Å. […] The “events” of gate opening/closing were analysed for scans of distinct particles as well as multiple scans of the same particles.
structure (smiles),measurement,setting,value
"N=C(N)NCCCC(NC(=O)CN)C(=O)NC(CCCCN)C(=O)NC(CCCCN)C(=O)NC(CCCNC(=N)N)C(=O)NC(CCCNC(=N)N)C(=O)NC(CCC(N)=O)C(=O)N1Cc2ccccc2C[C@H]1C(=O)N1C(C(=O)NC(CCCNC(N)N)C(=O)N2CCCC2C(=O)NC(CO)C(=O)O)CC2CCCCC21 (stereo partly drawn) [(5), GRKKRRQ-TOD-RPS]",proteasome activity in the central nervous system,[1]; 24 hours after intraperitoneal injection,significantly enhances proteasome activity
same,blood-brain-barrier penetration,"[1]; mice, IP injection",stably penetrates the blood-brain-barrier
same,intermediate conformers,20S proteasome,27%
